Earlier results in publication PMC8513935.
Values belong to the molecule of their own block, whether it stands above or below them.

Tests used:
[1] = experimental, compiled by the authors from the literature (the ESI cites the sources)
[2] = derived by the authors as gas->solvent minus gas->water (a hypothetical dry solvent; the ESI), not a two-phase measurement
[3] = log P octanol/water from commercial databases, averaged (the ESI); conditions: Octanol (wet), 25 C

log K of transfer, gas to solvent ([1]; 2-Methylpropan-2-ol, 25 C): 4.16 log10 K
log K of transfer, gas to solvent ([1]; Butan-1-ol, 25 C): 4.03 log10 K
log K of transfer, gas to solvent ([1]; Butan-2-ol, 25 C): 4.09 log10 K
log K of transfer, gas to solvent ([1]; Butanone, 25 C): 3.8 log10 K
log K of transfer, gas to solvent ([1]; CCl4, 25 C): 2.85 log10 K
log K of transfer, gas to solvent ([1]; Chlorobenzene, 25 C): 3.12 log10 K
log K of transfer, gas to solvent ([1]; Chloroform, 25 C): 3.69 log10 K
log K of transfer, gas to solvent ([1]; Decan-1-ol, 25 C): 3.89 log10 K
log K of transfer, gas to solvent ([1]; Hexadecane, 25 C): 2.34 log10 K
log K of transfer, gas to solvent ([1]; Hexane, 25 C): 2.61 log10 K
log K of transfer, gas to solvent ([1]; Octan-1-ol, 25 C): 3.8 log10 K
log K of transfer, gas to solvent ([1]; Water, 25 C): 3.39 log10 K
log K of transfer, water to solvent ([2]; 2-Methylpropan-2-ol, 25 C): 0.77 log10 K
log K of transfer, water to solvent ([2]; Butan-1-ol, 25 C): 0.64 log10 K
log K of transfer, water to solvent ([2]; Butan-2-ol, 25 C): 0.7 log10 K
log K of transfer, water to solvent ([2]; Butanone, 25 C): 0.41 log10 K
log K of transfer, water to solvent ([2]; CCl4, 25 C): -0.54 log10 K
log K of transfer, water to solvent ([2]; Chlorobenzene, 25 C): -0.27 log10 K
log K of transfer, water to solvent ([2]; Chloroform, 25 C): 0.3 log10 K
log K of transfer, water to solvent ([2]; Decan-1-ol, 25 C): 0.506 log10 K
log K of transfer, water to solvent ([2]; Hexadecane, 25 C): -1.05 log10 K
log K of transfer, water to solvent ([2]; Hexane, 25 C): -0.783 log10 K
log K of transfer, water to solvent ([2]; Octan-1-ol(dry), 25 C): 0.41 log10 K
log K of transfer, water to solvent [3]: 0.65 log10 K
Compound: CCC(C)O (stereo not shown)

log K of transfer, gas to solvent ([1]; Heptan-1-ol, 25 C): 2.57 log10 K
log K of transfer, gas to solvent ([1]; Hexadecane, 25 C): 2.91 log10 K
log K of transfer, gas to solvent ([1]; Pentan-1-ol, 25 C): 2.57 log10 K
log K of transfer, gas to solvent ([1]; Water, 25 C): -1.17 log10 K
log K of transfer, water to solvent ([2]; Heptan-1-ol, 25 C): 3.74 log10 K
log K of transfer, water to solvent ([2]; Hexadecane, 25 C): 4.07 log10 K
log K of transfer, water to solvent ([2]; Pentan-1-ol, 25 C): 3.74 log10 K
log K of transfer, water to solvent [3]: 3.37 log10 K
Compound: CC1CCCC1

log K of transfer, gas to solvent ([1]; 1,2-Dichloroethane, 25 C): 2.98 log10 K
log K of transfer, gas to solvent ([1]; 2-Methylpropan-1-ol, 25 C): 2.87 log10 K
log K of transfer, gas to solvent ([1]; 2-Methylpropan-2-ol, 25 C): 2.9 log10 K
log K of transfer, gas to solvent ([1]; 3-Methylbutan-1-ol, 25 C): 2.89 log10 K
log K of transfer, gas to solvent ([1]; Acetonitrile, 25 C): 2.35 log10 K
log K of transfer, gas to solvent ([1]; Butan-1-ol, 25 C): 2.88 log10 K
log K of transfer, gas to solvent ([1]; Butanone, 25 C): 3.03 log10 K
log K of transfer, gas to solvent ([1]; Butyronitrile, 25 C): 2.82 log10 K
log K of transfer, gas to solvent ([1]; CCl4, 25 C): 3.48 log10 K
log K of transfer, gas to solvent ([1]; Chlorobenzene, 25 C): 3.47 log10 K
log K of transfer, gas to solvent ([1]; Chloroform, 25 C): 3.39 log10 K
log K of transfer, gas to solvent ([1]; Cyclohexanone, 25 C): 2.95 log10 K
log K of transfer, gas to solvent ([1]; Di-n-butyl ether, 25 C): 3.38 log10 K
log K of transfer, gas to solvent ([1]; Dichloromethane, 25 C): 3.27 log10 K
log K of transfer, gas to solvent ([1]; Ethanol, 25 C): 2.71 log10 K
log K of transfer, gas to solvent ([1]; Hexadecane, 25 C): 3.17 log10 K
log K of transfer, gas to solvent ([1]; Hexan-1-ol, 25 C): 2.93 log10 K
log K of transfer, gas to solvent ([1]; Hexane, 25 C): 3.5 log10 K
log K of transfer, gas to solvent ([1]; Methanol, 25 C): 2.5 log10 K
log K of transfer, gas to solvent ([1]; Octan-1-ol, 25 C): 2.95 log10 K
log K of transfer, gas to solvent ([1]; Perfluoroalkane, 25 C): 2.25 log10 K
log K of transfer, gas to solvent ([1]; Propan-1-ol, 25 C): 2.74 log10 K
log K of transfer, gas to solvent ([1]; Propan-2-ol, 25 C): 2.74 log10 K
log K of transfer, gas to solvent ([1]; Propanone, 25 C): 2.81 log10 K
log K of transfer, gas to solvent ([1]; Propionitrile, 25 C): 2.67 log10 K
log K of transfer, gas to solvent ([1]; Tetrahydrofuran, 25 C): 3.34 log10 K
log K of transfer, gas to solvent ([1]; Toluene, 25 C): 3.33 log10 K
log K of transfer, gas to solvent ([1]; Water, 25 C): -1.96 log10 K
log K of transfer, water to solvent ([2]; 1,2-Dichloroethane, 25 C): 4.94 log10 K
log K of transfer, water to solvent ([2]; 2-Methylpropan-1-ol, 25 C): 4.83 log10 K
log K of transfer, water to solvent ([2]; 2-Methylpropan-2-ol, 25 C): 4.86 log10 K
log K of transfer, water to solvent ([2]; 3-Methylbutan-1-ol, 25 C): 4.85 log10 K
log K of transfer, water to solvent ([2]; Acetone, 25 C): 4.77 log10 K
log K of transfer, water to solvent ([2]; Acetonitrile, 25 C): 4.31 log10 K
log K of transfer, water to solvent ([2]; Butan-1-ol, 25 C): 4.84 log10 K
log K of transfer, water to solvent ([2]; Butanone, 25 C): 4.99 log10 K
log K of transfer, water to solvent ([2]; Butyronitrile, 25 C): 4.78 log10 K
log K of transfer, water to solvent ([2]; CCl4, 25 C): 5.44 log10 K
log K of transfer, water to solvent ([2]; Chlorobenzene, 25 C): 5.43 log10 K
log K of transfer, water to solvent ([2]; Chloroform, 25 C): 5.35 log10 K
log K of transfer, water to solvent ([2]; Cyclohexanone, 25 C): 4.91 log10 K
log K of transfer, water to solvent ([2]; Di-n-butyl ether, 25 C): 5.34 log10 K
log K of transfer, water to solvent ([2]; Dichloromethane, 25 C): 5.23 log10 K
log K of transfer, water to solvent ([2]; Ethanol, 25 C): 4.67 log10 K
log K of transfer, water to solvent ([2]; Hexadecane, 25 C): 5.13 log10 K
log K of transfer, water to solvent ([2]; Hexan-1-ol, 25 C): 4.89 log10 K
log K of transfer, water to solvent ([2]; Hexane, 25 C): 5.46 log10 K
log K of transfer, water to solvent ([2]; Methanol, 25 C): 4.46 log10 K
log K of transfer, water to solvent ([2]; Octan-1-ol(dry), 25 C): 4.91 log10 K
log K of transfer, water to solvent ([2]; Perfluoroalkane, 25 C): 4.21 log10 K
log K of transfer, water to solvent ([2]; Propan-1-ol, 25 C): 4.7 log10 K
log K of transfer, water to solvent ([2]; Propan-2-ol, 25 C): 4.7 log10 K
log K of transfer, water to solvent ([2]; Propionitrile, 25 C): 4.63 log10 K
log K of transfer, water to solvent ([2]; Tetrahydrofuran, 25 C): 5.3 log10 K
log K of transfer, water to solvent ([2]; Toluene, 25 C): 5.29 log10 K
log K of transfer, water to solvent [3]: 4.5 log10 K
Compound: CCCCCCC

The next lines start with the molecule.

Compound: CCCCc1ccccc1
log K of transfer, gas to solvent ([1]; Ethanol, 25 C): 4.2 log10 K
log K of transfer, gas to solvent ([1]; Hexadecane, 25 C): 4.73 log10 K
log K of transfer, gas to solvent ([1]; Methanol, 25 C): 4.28 log10 K
log K of transfer, gas to solvent ([1]; Propan-2-ol, 25 C): 4.35 log10 K
log K of transfer, gas to solvent ([1]; Tetrahydrofuran, 25 C): 5.38 log10 K
log K of transfer, gas to solvent ([1]; Water, 25 C): 0.29 log10 K
log K of transfer, water to solvent ([2]; Ethanol, 25 C): 3.91 log10 K
log K of transfer, water to solvent ([2]; Hexadecane, 25 C): 4.44 log10 K
log K of transfer, water to solvent ([2]; Methanol, 25 C): 3.99 log10 K
log K of transfer, water to solvent ([2]; Propan-2-ol, 25 C): 4.06 log10 K
log K of transfer, water to solvent ([2]; Tetrahydrofuran, 25 C): 5.09 log10 K
log K of transfer, water to solvent [3]: 4.26 log10 K

Compound: CCCC(C)=O
log K of transfer, gas to solvent ([1]; Benzene, 25 C): 3.77 log10 K
log K of transfer, gas to solvent ([1]; CCl4, 25 C): 3.52 log10 K
log K of transfer, gas to solvent ([1]; Chlorobenzene, 25 C): 3.87 log10 K
log K of transfer, gas to solvent ([1]; Cyclohexane, 25 C): 2.98 log10 K
log K of transfer, gas to solvent ([1]; Hexadecane, 25 C): 2.75 log10 K
log K of transfer, gas to solvent ([1]; Methanol, 25 C): 3.58 log10 K
log K of transfer, gas to solvent ([1]; Octan-1-ol, 25 C): 3.19 log10 K
log K of transfer, gas to solvent ([1]; Toluene, 25 C): 3.68 log10 K
log K of transfer, gas to solvent ([1]; Water, 25 C): 2.58 log10 K
log K of transfer, water to solvent ([2]; Benzene, 25 C): 1.19 log10 K
log K of transfer, water to solvent ([2]; CCl4, 25 C): 0.94 log10 K
log K of transfer, water to solvent ([2]; Chlorobenzene, 25 C): 1.29 log10 K
log K of transfer, water to solvent ([2]; Cyclohexane, 25 C): 0.4 log10 K
log K of transfer, water to solvent ([2]; Hexadecane, 25 C): 0.175 log10 K
log K of transfer, water to solvent ([2]; Methanol, 25 C): 0.999 log10 K
log K of transfer, water to solvent ([2]; Octan-1-ol(dry), 25 C): 0.61 log10 K
log K of transfer, water to solvent ([2]; Toluene, 25 C): 1.1 log10 K
log K of transfer, water to solvent [3]: 0.84 log10 K

Compound: O
log K of transfer, gas to solvent ([1]; Benzene, 25 C): 1.25 log10 K
log K of transfer, gas to solvent ([1]; CCl4, 25 C): 0.64 log10 K
log K of transfer, gas to solvent ([1]; Chloroform, 25 C): 1.54 log10 K
log K of transfer, gas to solvent ([1]; Cyclohexane, 25 C): 0.29 log10 K
log K of transfer, gas to solvent ([1]; Dichloromethane, 25 C): 1.94 log10 K
log K of transfer, gas to solvent ([1]; Ethanol, 25 C): 3.72 log10 K
log K of transfer, gas to solvent ([1]; Hexadecane, 25 C): 0.245 log10 K
log K of transfer, gas to solvent ([1]; Hexane, 25 C): 0.54 log10 K
log K of transfer, gas to solvent ([1]; Methanol, 25 C): 4.07 log10 K
log K of transfer, gas to solvent ([1]; Perfluoroalkane, 25 C): 0.33 log10 K
log K of transfer, gas to solvent ([1]; Propan-2-ol, 25 C): 3.41 log10 K
log K of transfer, gas to solvent ([1]; Propanone, 25 C): 3.22 log10 K
log K of transfer, gas to solvent ([1]; Tetrahydrofuran, 25 C): 2.91 log10 K
log K of transfer, gas to solvent ([1]; Toluene, 25 C): 1.24 log10 K
log K of transfer, gas to solvent ([1]; Water, 25 C): 4.69 log10 K
log K of transfer, water to solvent ([2]; Acetone, 25 C): -1.47 log10 K
log K of transfer, water to solvent ([2]; Benzene, 25 C): -3.44 log10 K
log K of transfer, water to solvent ([2]; CCl4, 25 C): -4.05 log10 K
log K of transfer, water to solvent ([2]; Chloroform, 25 C): -3.15 log10 K
log K of transfer, water to solvent ([2]; Cyclohexane, 25 C): -4.4 log10 K
log K of transfer, water to solvent ([2]; Dichloromethane, 25 C): -2.75 log10 K
log K of transfer, water to solvent ([2]; Ethanol, 25 C): -0.97 log10 K
log K of transfer, water to solvent ([2]; Hexadecane, 25 C): -4.44 log10 K
log K of transfer, water to solvent ([2]; Hexane, 25 C): -4.15 log10 K
log K of transfer, water to solvent ([2]; Methanol, 25 C): -0.62 log10 K
log K of transfer, water to solvent ([2]; Perfluoroalkane, 25 C): -4.36 log10 K
log K of transfer, water to solvent ([2]; Propan-2-ol, 25 C): -1.28 log10 K
log K of transfer, water to solvent ([2]; Tetrahydrofuran, 25 C): -1.78 log10 K
log K of transfer, water to solvent ([2]; Toluene, 25 C): -3.45 log10 K
log K of transfer, water to solvent [3]: -1.38 log10 K
